In the experiment the target is T1, Full-length glucokinase (beta cell isoform) (Homo sapiens, UniProt P35557).
T1 construct: Full-length glucokinase (beta cell isoform) was His-tagged at N-terminus; His tag (N); made in house
T1 sequence (P35557 1-465): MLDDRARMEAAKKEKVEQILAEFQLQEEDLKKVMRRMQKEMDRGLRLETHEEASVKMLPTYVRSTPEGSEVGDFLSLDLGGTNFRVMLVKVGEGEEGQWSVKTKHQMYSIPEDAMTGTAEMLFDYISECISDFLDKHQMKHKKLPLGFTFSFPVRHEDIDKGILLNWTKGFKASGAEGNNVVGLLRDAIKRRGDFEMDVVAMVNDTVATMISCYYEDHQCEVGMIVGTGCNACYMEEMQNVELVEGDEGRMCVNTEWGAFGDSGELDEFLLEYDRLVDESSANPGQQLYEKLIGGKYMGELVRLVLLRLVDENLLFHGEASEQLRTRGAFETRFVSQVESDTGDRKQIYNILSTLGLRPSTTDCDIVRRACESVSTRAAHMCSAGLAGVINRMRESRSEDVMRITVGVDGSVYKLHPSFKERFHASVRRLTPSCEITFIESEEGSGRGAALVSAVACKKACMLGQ
The experiment can be described thus: Glucokinase biochemical assay (PK/LDH-coupled, NADH depletion at 340 nm): % activation, EC50, % max activation. Conditions: 5 mM glucose; for activation at 10 µM: read-out: % Activation at 10 uM; for EC50: read-out: EC50; for Emax: fitted maximum activation, read-out: % Max Activation. The procedure, abridged:
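N-terminally His-tagged full-length human beta-cell glucokinase, room temperature, 5 mM glucose, 1 mM ATP, PK/LDH-coupled with 0.7 mM NADH, 1% DMSO final. Initial velocity from the 200–900 s slope of A340 decline. % activation = (Va/Vo−1)×100, measured across compound concentrations.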

The mark [1] stands for this setting: 10 uM compound, % Activation=(Va/Vo−1)×100.
Setting [2] is: compound at 10 uM, 1 mM ATP, room temperature.

Like-named read-outs stand apart in the source and are kept apart here.

From US8119624B2, “Fused phenyl amido heterocyclic compounds” (Pfizer Inc., priority 2006, dated 2012) come the findings set out here.

As for `Cc1cc2c(Oc3ccc(S(C)(=O)=O)cc3)cc(C(=O)Nc3ccccn3)cc2o1` [Example 257, 2-Methyl-4-(4-(methylsulfonyl)phenoxy)-N-(pyridin-2-yl)-benzofuran-6-carboxamide], the Emax was 119%. Besides, the activation at 10 µM under setting [1] stood at 111%. Further, the EC50 (in general, the concentration at which the effect is half-maximal) (GK activation) amounted to 1400 nM.
The corresponding values for `Cn1ccc(NC(=O)c2cc(Oc3ccc(C(=O)N4CCC4)c(F)c3)c3c(c2)OC(C)(CO)C3)n1` (stereo not shown) [Example 241, 4-[4-(Azetidine-1-carbonyl)-3-fluoro-phenoxy]-2-hydroxymethyl-2-methyl-2,3-dihydro-benzofuran-6-carboxylic acid (1-methyl-1H-pyrazol-3-yl)-amide] are 135%, 127% and 58 nM.
On to `CCNC(=O)c1c(F)cc(Oc2cc(C(=O)Nc3ccn(C)n3)cc3c2CC(C)(C)O3)cc1F` [Example 112, 4-(4-Ethylcarbamoyl-3,5-difluoro-phenoxy)-2,2-dimethyl-2,3-dihydro-benzofuran-6-carboxylic acid (1-methyl-1H-pyrazol-3-yl)-amide], for which the Emax came out at 153%. Further, the activation at 10 µM under setting [1] came out at 130%. Besides, the EC50 (GK activation) was determined as 44 nM.
On to `Cc1cc2c(Oc3ccc(S(C)(=O)=O)cc3)cc(C(=O)Nc3ccc(C(F)(F)F)cn3)cc2o1` [Example 253, 2-Methyl-4-(4-(methylsulfonyl)phenoxy)-N-(5-(trifluoromethyl)-pyridin-2-yl)benzofuran-6-carboxamide], for which, under setting [1], the activation at 10 µM amounted to 32.1%.
Regarding `CCNC(=O)c1ncc(Oc2cc(C(=O)Nc3ccn(C)n3)cc3c2CC(C)(C)O3)cc1F` [Example 177, 5-[2,2-Dimethyl-6-(1-methyl-1H-pyrazol-3-ylcarbamoyl)-2,3-dihydro-benzofuran-4-yloxy]-3-fluoro-pyridine-2-carboxylic acid ethylamide], the Emax is 189%. Under setting [1], the activation at 10 µM is 204%. For the same molecule, the 50% effective concentration (EC50) (GK activation) was found to be 350 nM.
The corresponding values for `Cn1ccc(NC(=O)c2cc(Oc3ccc(C(F)F)cc3)c3c(c2)OC(C)(C)C3)n1` [Example 38, 4-(4-Difluoromethyl-phenoxy)-2,2-dimethyl-2,3-dihydro-benzofuran-6-carboxylic acid(1-methyl-1H-pyrazol-3-yl)-amide] are 149%, 109% and 2400 nM.
With `Cc1ccc(NC(=O)c2cc(Oc3ccc(S(C)(=O)=O)cc3)c3c(c2)C(=O)N(C)CC3)nc1` [Example 390, 2-Methyl-N-(5-methylpyridin-2-yl)-5-(4-(methylsulfonyl)-phenoxy)-1-oxo-1,2,3,4-tetrahydroisoquinoline-7-carboxamide], under setting [2], the activation at 10 µM worked out at 28.9%.
With `Cc1ccc(NC(=O)c2cc(Oc3ccc(C(=O)N(C)C)cc3)c3oc(C)nc3c2)nc1` [Example 370, 7-{4-[(Dimethylamino)carbonyl]phenoxy}-2-methyl-N-(5-methylpyridin-2-yl)-1,3-benzoxazole-5-carboxamide], the Emax was found to be 3.5%. The activation at 10 µM under setting [1] is 14.9%. Besides, the EC50 (GK activation) was found to be 170 nM.
Take `CCCc1noc(COc2cc(C(=O)Nc3ccn(C)n3)cc3c2CC(C)(C)O3)n1` [Example 100, 2,2-Dimethyl-4-(3-propyl-[1,2,4]oxadiazol-5-ylmethoxy)-2,3-dihydro-benzofuran-6-carboxylic acid (1-methyl-1H-pyrazol-3-yl)-amide]: the Emax was determined as 156%. In addition, the activation at 10 µM under setting [1] is 171%. The EC50 (GK activation) amounted to 1600 nM.
For the molecule `Cc1ccc(NC(=O)c2cc(Oc3ccc(S(C)(=O)=O)cc3)c3cc(C)sc3c2)nc1` [Example 359, 4-(4-Methanesulfonyl-phenoxy)-2-methyl-benzo[b]thiophene-6-carboxylic acid (5-methyl-pyridin-2-yl)-amide], the Emax came out at 70%. The activation at 10 µM under setting [1] was found to be 69.9%. Also, the EC50 (GK activation) was 190 nM.
The corresponding values for `CCOc1cc(C(=O)Nc2ccn(C)n2)cc2c1CC(C)(C)O2` [Example 92, 4-Ethoxy-2,2-dimethyl-2,3-dihydro-benzofuran-6-carboxylic acid (1-methyl-1H-pyrazol-3-yl)-amide] are 164%, 87% and 9500 nM.
The corresponding values for `CN(C)C(=O)c1ccc(Oc2cc(C(=O)Nc3ccc(CO)cn3)cc3c2CC(C)(C)O3)cc1` [Example 155, 4-(4-Dimethylcarbamoyl-phenoxy)-2,2-dimethyl-2,3-dihydro-benzofuran-6-carboxylic acid (5-hydroxymethyl-pyridin-2-yl)-amide] are 43%, 38.4% and 90 nM.
The corresponding values for `Cc1cc2c(Oc3ccc(S(=O)(=O)N4CCC4)cc3)cc(C(=O)Nc3ccccn3)cc2o1` [Example 296, 4-(4-(Azetidin-1-ylsulfonyl)phenoxy)-2-methyl-N-(pyridin-2-yl)benzofuran-6-carboxamide] are 77%, 70% and 200 nM.
Regarding `Cn1ccc(NC(=O)c2cc(Oc3ccc(S(=O)(=O)C4CC4)c(F)c3)c3c(c2)OC(C)(C)C3)n1` [Example 141, 4-(4-Cyclopropanesulfonyl-3-fluoro-phenoxy)-2,2-dimethyl-2,3-dihydro-benzofuran-6-carboxylic acid (1-methyl-1H-pyrazol-3-yl)-amide], the Emax was found to be 216%. For the same molecule, the activation at 10 µM under setting [1] worked out at 173%. Also, the EC50 (GK activation) came out at 110 nM.
`Cc1cc(NC(=O)c2cc(Oc3ccc(S(C)(=O)=O)cc3)c3cc(C)oc3c2)no1` [Example 255, 2-Methyl-N-(5-methylisoxazol-3-yl)-4-(4-(methylsulfonyl)-phenoxy)-benzofuran-6-carboxamide]: the activation at 10 µM under setting [1] turned out to be 18.8%.
For `Cn1ccc(NC(=O)c2cc(Oc3ccc(S(C)(=O)=O)cc3)c3occc3c2)n1` [Example 332, N-(1-Methyl-1H-pyrazol-3-yl)-7-[4-(methylsulfonyl)phenoxy]-1-benzofuran-5-carboxamide], the activation at 10 µM under setting [1] came to 57.5%. For the same molecule, the EC50 (GK activation) is more than 10000 nM.
`Cn1ccc(NC(=O)c2cc(OCc3noc(C(C)(C)C)n3)c3c(c2)OC(C)(C)C3)n1` [Example 91, 4-(5-tert-Butyl-[1,2,4]oxadiazol-3-ylmethoxy)-2,2-dimethyl-2,3-dihydro-benzofuran-6-carboxylic acid (1-methyl-1H-pyrazol-3-yl)-amide]: the Emax came out at 150%. Besides, the activation at 10 µM under setting [1] came to 150%. Also, the EC50 (GK activation) was found to be 3500 nM.
For the molecule `Cn1ccc(NC(=O)c2cc(Oc3ccc(S(C)(=O)=O)c(Cl)c3)c3c(c2)OC(C)(C)C3)n1` [Example 139, 4-(3-Chloro-4-methanesulfonyl-phenoxy)-2,2-dimethyl-2,3-dihydro-benzofuran-6-carboxylic acid (1-methyl-1H-pyrazol-3-yl)-amide], the Emax turned out to be 254%. Also, under setting [1], the activation at 10 µM was 242%. The EC50 (GK activation) is 550 nM.
The corresponding values for `Cn1ncc(NC(=O)c2cc(Oc3ccc(S(C)(=O)=O)cc3Cl)c3c(c2)OC(C)(C)C3)n1` [Example 119, 4-(2-Chloro-4-methanesulfonyl-phenoxy)-2,2-dimethyl-2,3-dihydro-benzofuran-6-carboxylic acid (2-methyl-2H-[1,2,3]triazol-4-yl)-amide] are 223%, 242% and 430 nM.
Turning to `Cn1ccc(NC(=O)c2cc(Oc3cnc(C(=O)N4CC(F)C4)c(F)c3)c3c(c2)OC(C)(C)C3)n1` [Example 403, 4-(5-fluoro-6-(3-fluoroazetidine-1-carbonyl)pyridin-3-yloxy)-2,2-dimethyl-N-(1-methyl-1H-pyrazol-3-yl)-2,3-dihydrobenzofuran-6-carboxamide], the half-maximal effective concentration (EC50) (1 mM ATP, room temperature) turned out to be 121 nM. In addition, the activation at 10 µM under setting [2] worked out at 196%. Further, the Emax (1 mM ATP) came out at 191%.
As to `Cc1ccc(NC(=O)c2cc(OCc3ccccc3Cl)cc3c2CCC(C)(C)O3)nc1` [Example 375, 7-(2-Chloro-benzyloxy)-2,2-dimethyl-chroman-5-carboxylic acid(5-methyl-pyridin-2-yl)-amide], the “% Activation at 10 uM” value under setting [1] was 5.6%.
Regarding `Cc1ccc(NC(=O)c2cc(Oc3ccc(S(C)(=O)=O)cc3)c3ccn(C)c(=O)c3c2)nc1` [Example 394, 2-Methyl-N-(5-methylpyridin-2-yl)-5-(4-(methylsulfonyl)-phenoxy)-1-oxo-1,2-dihydroisoquinoline-7-carboxamide], the activation at 10 µM under setting [2] was 32%.
As for `CCc1nc(O)cc(COc2cc(C(=O)Nc3ccn(C)n3)cc3c2CC(C)(C)O3)n1` [Example 104, 4-(2-Ethyl-6-hydroxy-pyrimidin-4-ylmethoxy)-2,2-dimethyl-2,3-dihydro-benzofuran-6-carboxylic acid (1-methyl-1H-pyrazol-3-yl)-amide], the Emax turned out to be 134%. Besides, under setting [1], the activation at 10 µM turned out to be 149%. In addition, for the setting “GK activation”, the concentration giving a half-maximal response (EC50) came out at 1800 nM.
